Source: the supplement of paper PMC12076712
± gives the standard deviation of the averaged measurements.

Columns and labels:
Assay in all cases: pIC50, competition of probe 3 labelling in live cells
Details in all cases: cell material: Jurkat cells
CAMK1D = CAMK1D (UniProt Q8IU85)
CDK5 = CDK5 (UniProt Q00535)
LIMK1 = LIMK1 (UniProt P53667)
UniProt P51812 = molecular target: UniProt P51812
UniProt Q02750 = molecular target: UniProt Q02750
ABCC1 = ABCC1 (UniProt P33527)
BLK = BLK (UniProt P51451)
CES3 = CES3 (UniProt Q6UWW8)
CLK1 = CLK1 (UniProt P49759)
CLK3 = CLK3 (UniProt P49761)
CTSA = CTSA (UniProt P10619)
FTO = FTO (UniProt Q9C0B1)
LYPLA2 = LYPLA2 (UniProt O95372)
MAST3 = MAST3 (UniProt O60307)
PNPLA6 = PNPLA6 (UniProt Q8IY17)
SGK3 = molecular target: T1, SGK3 (UniProt Q96BR1)
T1 sequence (whole entry): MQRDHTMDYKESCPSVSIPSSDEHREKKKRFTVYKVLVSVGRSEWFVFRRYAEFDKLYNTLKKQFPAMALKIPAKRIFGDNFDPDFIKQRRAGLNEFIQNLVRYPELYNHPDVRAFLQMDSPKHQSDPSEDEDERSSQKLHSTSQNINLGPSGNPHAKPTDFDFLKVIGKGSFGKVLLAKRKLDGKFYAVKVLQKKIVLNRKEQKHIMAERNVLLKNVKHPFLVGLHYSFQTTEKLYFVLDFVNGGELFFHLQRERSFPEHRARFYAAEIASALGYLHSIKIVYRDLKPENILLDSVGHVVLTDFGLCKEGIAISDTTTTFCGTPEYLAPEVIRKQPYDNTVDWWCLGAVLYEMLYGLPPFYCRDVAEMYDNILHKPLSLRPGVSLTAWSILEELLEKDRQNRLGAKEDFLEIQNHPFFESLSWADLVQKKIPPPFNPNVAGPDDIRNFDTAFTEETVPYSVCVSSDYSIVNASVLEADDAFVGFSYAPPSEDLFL

SPR = SPR (UniProt P35270)
TAOK3 = TAOK3 (UniProt Q9H2K8)
UniProt O43318 = molecular target: T2, UniProt O43318
T2 sequence (whole entry): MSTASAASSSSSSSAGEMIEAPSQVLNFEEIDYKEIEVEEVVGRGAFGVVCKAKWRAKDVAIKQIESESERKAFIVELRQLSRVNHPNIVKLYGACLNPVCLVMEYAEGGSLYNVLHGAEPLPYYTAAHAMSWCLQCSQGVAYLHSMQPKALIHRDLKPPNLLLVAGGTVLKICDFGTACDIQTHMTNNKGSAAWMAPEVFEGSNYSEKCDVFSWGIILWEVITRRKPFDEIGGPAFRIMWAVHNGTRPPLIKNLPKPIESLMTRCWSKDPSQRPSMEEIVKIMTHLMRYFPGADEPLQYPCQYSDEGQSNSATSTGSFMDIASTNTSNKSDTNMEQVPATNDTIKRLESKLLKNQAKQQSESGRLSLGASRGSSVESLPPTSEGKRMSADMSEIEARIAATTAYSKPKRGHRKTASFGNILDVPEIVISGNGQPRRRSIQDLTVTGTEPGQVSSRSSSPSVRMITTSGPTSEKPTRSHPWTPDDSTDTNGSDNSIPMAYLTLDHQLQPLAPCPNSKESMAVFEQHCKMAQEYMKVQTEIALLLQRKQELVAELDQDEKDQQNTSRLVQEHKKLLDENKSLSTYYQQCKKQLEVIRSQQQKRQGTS

UniProt O75582 = molecular target: UniProt O75582
UniProt Q15831 = molecular target: T3, UniProt Q15831
T3 sequence (whole entry): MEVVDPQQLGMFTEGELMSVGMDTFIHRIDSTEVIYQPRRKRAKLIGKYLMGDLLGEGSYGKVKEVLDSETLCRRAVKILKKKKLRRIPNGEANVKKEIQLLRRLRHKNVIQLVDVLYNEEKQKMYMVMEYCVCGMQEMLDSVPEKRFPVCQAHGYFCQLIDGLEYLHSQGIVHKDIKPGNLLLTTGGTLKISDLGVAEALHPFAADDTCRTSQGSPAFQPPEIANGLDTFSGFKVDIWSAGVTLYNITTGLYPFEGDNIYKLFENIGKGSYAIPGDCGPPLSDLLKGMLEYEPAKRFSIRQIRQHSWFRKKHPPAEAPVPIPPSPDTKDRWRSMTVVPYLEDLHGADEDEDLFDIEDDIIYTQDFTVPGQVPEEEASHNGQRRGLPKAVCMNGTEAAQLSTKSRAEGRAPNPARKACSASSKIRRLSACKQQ

UniProt Q8NEB9 = molecular target: UniProt Q8NEB9
UniProt Q92918 = molecular target: UniProt Q92918
UniProt Q9P289 = molecular target: UniProt Q9P289
UniProt Q9Y2H1 = molecular target: UniProt Q9Y2H1

PNPLA6, sequence (Q8IY17 whole entry): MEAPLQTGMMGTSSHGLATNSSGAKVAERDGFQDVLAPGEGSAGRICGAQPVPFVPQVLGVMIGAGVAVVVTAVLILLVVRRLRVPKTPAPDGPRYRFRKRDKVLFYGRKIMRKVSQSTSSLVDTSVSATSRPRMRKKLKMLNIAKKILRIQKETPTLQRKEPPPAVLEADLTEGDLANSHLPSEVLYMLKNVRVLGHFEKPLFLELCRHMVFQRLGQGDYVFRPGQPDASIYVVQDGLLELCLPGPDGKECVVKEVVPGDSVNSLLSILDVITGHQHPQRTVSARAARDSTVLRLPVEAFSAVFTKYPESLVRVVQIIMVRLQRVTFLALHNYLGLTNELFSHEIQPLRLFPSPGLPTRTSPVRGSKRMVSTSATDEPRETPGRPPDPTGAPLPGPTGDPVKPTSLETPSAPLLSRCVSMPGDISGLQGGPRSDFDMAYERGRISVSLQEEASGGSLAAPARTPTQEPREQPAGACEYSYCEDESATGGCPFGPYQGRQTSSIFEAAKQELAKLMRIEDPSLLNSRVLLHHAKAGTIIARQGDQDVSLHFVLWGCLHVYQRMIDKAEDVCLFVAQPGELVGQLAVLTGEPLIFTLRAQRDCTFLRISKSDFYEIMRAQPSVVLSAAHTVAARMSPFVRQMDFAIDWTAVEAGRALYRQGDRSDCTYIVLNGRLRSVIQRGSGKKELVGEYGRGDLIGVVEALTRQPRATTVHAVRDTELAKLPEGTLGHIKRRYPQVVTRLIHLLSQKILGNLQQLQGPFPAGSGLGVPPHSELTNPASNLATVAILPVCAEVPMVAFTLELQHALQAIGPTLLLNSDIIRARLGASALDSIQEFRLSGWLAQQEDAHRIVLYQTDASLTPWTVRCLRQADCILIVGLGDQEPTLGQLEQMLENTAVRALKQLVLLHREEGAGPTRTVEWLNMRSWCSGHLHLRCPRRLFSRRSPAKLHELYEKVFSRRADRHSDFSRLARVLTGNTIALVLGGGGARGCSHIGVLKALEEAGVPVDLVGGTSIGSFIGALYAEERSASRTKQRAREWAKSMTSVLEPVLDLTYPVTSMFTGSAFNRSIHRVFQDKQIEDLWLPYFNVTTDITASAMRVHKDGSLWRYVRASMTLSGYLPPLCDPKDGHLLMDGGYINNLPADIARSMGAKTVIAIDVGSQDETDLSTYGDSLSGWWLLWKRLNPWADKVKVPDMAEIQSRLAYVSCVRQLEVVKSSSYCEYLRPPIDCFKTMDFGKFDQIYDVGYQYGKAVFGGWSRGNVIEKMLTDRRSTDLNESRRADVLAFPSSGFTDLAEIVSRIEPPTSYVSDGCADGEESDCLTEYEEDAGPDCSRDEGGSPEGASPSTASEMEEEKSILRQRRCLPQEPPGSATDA
BLK, sequence (P51451 whole entry, looked up): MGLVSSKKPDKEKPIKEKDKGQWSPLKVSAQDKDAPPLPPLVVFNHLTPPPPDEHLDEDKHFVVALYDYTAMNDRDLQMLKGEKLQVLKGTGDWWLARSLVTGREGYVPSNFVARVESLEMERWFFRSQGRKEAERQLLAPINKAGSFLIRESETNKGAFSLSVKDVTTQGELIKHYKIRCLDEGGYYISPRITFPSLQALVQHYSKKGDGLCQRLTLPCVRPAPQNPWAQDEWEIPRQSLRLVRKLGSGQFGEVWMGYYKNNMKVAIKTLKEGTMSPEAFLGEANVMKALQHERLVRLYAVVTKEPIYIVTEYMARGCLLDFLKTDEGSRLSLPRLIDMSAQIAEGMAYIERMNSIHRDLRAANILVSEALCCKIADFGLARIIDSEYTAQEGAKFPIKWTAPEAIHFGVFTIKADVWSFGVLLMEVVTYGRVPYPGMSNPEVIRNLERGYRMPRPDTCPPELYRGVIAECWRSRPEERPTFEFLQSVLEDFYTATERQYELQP
UniProt O75582, sequence (O75582 whole entry, looked up): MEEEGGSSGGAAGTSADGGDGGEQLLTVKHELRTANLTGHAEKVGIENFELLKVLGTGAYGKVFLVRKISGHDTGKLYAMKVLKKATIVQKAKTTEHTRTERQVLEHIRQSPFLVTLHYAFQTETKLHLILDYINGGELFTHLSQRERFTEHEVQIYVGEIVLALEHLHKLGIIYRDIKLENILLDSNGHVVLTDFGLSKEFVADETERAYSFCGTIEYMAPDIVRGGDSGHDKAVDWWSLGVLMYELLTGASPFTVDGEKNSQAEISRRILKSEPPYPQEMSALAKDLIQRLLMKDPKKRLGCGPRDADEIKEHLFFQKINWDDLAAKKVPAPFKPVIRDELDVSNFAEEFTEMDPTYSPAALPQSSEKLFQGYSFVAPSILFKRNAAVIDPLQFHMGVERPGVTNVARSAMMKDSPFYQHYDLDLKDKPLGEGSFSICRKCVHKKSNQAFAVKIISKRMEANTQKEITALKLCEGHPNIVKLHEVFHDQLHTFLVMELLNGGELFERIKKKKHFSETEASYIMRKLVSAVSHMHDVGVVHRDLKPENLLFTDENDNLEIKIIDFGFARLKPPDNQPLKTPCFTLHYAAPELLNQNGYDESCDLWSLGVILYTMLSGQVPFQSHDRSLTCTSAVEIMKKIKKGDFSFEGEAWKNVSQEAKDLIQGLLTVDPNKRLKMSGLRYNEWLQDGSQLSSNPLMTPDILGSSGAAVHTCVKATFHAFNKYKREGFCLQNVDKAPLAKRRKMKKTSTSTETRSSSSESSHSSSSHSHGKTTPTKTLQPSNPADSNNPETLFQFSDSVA
MAST3, sequence (O60307 whole entry): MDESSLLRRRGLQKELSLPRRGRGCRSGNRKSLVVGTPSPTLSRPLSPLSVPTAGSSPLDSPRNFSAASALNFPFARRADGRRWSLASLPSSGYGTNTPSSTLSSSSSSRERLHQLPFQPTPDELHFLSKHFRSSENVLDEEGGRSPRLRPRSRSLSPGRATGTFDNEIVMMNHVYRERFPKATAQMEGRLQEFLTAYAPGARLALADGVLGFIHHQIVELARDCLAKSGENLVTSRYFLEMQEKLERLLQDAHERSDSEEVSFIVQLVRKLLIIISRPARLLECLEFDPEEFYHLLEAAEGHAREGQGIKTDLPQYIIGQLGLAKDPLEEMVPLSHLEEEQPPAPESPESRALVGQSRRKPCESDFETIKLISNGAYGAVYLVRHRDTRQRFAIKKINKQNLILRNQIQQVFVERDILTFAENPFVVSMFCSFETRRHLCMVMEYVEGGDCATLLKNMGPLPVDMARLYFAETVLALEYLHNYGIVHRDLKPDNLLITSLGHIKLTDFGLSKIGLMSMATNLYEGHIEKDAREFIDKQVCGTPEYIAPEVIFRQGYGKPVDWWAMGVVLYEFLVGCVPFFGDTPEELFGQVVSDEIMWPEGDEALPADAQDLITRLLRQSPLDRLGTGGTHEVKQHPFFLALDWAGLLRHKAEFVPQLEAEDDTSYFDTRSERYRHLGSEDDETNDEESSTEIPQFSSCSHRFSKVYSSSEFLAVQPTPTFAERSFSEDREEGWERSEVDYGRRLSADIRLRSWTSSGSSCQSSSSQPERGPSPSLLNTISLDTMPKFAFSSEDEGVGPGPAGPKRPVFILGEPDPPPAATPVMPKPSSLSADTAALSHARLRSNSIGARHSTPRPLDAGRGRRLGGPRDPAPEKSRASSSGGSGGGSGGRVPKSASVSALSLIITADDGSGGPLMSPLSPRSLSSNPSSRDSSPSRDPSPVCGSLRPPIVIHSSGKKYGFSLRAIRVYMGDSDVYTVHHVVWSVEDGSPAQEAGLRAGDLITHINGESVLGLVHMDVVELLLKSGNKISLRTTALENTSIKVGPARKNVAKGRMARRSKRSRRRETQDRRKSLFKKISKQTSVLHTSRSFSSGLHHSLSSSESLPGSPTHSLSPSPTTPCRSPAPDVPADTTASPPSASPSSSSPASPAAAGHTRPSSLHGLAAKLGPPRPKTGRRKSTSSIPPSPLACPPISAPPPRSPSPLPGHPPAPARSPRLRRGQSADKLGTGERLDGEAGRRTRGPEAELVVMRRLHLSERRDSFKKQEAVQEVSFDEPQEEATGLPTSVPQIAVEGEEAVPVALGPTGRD
UniProt Q8NEB9, sequence (Q8NEB9 whole entry): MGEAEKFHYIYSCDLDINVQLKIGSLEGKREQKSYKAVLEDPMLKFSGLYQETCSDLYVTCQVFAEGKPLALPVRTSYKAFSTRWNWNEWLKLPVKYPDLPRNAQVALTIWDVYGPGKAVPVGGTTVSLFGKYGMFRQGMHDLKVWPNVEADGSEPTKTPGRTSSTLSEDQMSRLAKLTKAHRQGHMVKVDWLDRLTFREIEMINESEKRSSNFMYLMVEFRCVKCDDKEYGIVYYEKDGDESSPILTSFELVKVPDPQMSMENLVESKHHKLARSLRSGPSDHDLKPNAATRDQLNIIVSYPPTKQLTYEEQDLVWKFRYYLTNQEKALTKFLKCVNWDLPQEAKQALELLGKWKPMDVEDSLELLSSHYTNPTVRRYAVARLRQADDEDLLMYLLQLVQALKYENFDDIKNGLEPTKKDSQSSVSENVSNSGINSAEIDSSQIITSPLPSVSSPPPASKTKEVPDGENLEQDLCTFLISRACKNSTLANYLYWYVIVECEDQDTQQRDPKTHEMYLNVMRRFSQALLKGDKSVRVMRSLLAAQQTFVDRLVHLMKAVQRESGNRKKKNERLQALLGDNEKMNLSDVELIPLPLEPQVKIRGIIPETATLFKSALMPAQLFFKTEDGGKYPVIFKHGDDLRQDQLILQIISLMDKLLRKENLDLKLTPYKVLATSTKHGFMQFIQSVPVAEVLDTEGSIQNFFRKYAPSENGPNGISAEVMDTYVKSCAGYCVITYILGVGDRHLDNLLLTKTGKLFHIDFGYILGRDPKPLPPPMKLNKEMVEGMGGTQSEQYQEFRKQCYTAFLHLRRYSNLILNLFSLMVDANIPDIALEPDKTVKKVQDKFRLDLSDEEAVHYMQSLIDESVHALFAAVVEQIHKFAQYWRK

Row | pIC50 (CAMK1D) | pIC50 (CDK5) | pIC50 (LIMK1) | pIC50 (UniProt P51812) | pIC50 (UniProt Q02750) | pIC50 (ABCC1) | pIC50 (BLK) | pIC50 (CES3) | pIC50 (CLK1) | pIC50 (CLK3) | pIC50 (CTSA) | pIC50 (FTO) | pIC50 (LYPLA2) | pIC50 (MAST3) | pIC50 (PNPLA6) | pIC50 (SGK3) | pIC50 (SPR) | pIC50 (TAOK3) | pIC50 (UniProt O43318) | pIC50 (UniProt O75582) | pIC50 (UniProt Q15831) | pIC50 (UniProt Q8NEB9) | pIC50 (UniProt Q92918) | pIC50 (UniProt Q9P289) | pIC50 (UniProt Q9Y2H1) | SMILES
1 | < 4.52 | < 4.52 | < 4.52 | < 4.52 | < 4.52 | – | – | – | – | – | – | – | – | – | – | – | – | – | – | – | – | – | – | – | – | CC#CC(=O)Nc1ccc2ncnc(Nc3cccc(Br)c3)c2c1 [EKI-785]
2 | – | – | – | – | – | < 4.52 | < 4.52 | < 4.52 | < 4.52 | < 4.52 | < 4.52 | < 4.52 | < 4.52 | < 4.52 | < 4.52 | < 4.52 | < 4.52 | < 4.52 | < 4.52 | < 4.52 | 5.24 ± 0.12 | < 4.52 | < 4.52 | < 4.52 | < 4.52 | CCc1cnn2c(NCc3ccc[n+]([O-])c3)cc(N3CCCC[C@H]3CCO)nc12 [dinaciclib]
